Assay results taken from patent US20100035871A1, “BENZOXAZINE DERIVATIVES AND USES THEREOF” (priority 2006, published 2010).
Counter-ions that a name gives are not always drawn.

melting point	SMILES
145 °C (dec.)	NC[C@H]1CNc2cccc(-c3ccccc3Cl)c2O1 (as salt: hydrochloride) [Example 39, 1-[(2S)-8-(2-chlorophenyl)-3,4-dihydro-2H-1,4-benzoxazin-2-yl]methanamine]
135 °C (dec.)	NC[C@@H]1CNc2cccc(-c3ccccc3Cl)c2O1 (as salt: hydrochloride) [Example 40, 1-[(2R)-8-(2-chlorophenyl)-3,4-dihydro-2H-1,4-benzoxazin-2-yl]methanamine]
180 °C (dec.)	NC[C@@H]1CNc2cccc(-c3ccccc3C(F)(F)F)c2O1 (as salt: hydrochloride) [Example 41, 1-{(2R)-8-[2-(trifluoromethyl)phenyl]-3,4-dihydro-2H-1,4-benzoxazin-2-yl}methanamine]
195 °C (dec.)	Cc1cc(Cl)ccc1-c1cccc2c1O[C@H](CN)CN2 (as salt: hydrochloride) [Example 42, 1-[(2R)-8-(4-chloro-2-methylphenyl)-3,4-dihydro-2H-1,4-benzoxazin-2-yl]methanamine]
186 °C (dec.)	NC[C@@H]1CNc2cccc(-c3ccccc3F)c2O1 (as salt: hydrochloride) [Example 43, 1-[(2R)-8-(2-fluorophenyl)-3,4-dihydro-2H-1,4-benzoxazin-2-yl]methanamine]
221 °C (dec.)	COc1ccc(-c2cccc3c2O[C@H](CN)CN3)c(C)c1 (as salt: hydrochloride) [Example 44, 1-[(2R)-8-(4-methoxy-2-methylphenyl)-3,4-dihydro-2H-1,4-benzoxazin-2-yl]methanamine]
196 °C (dec.)	COc1ccc(-c2cccc3c2O[C@H](CN)CN3)cc1 (as salt: hydrochloride) [Example 45, 1-[(2R)-8-(4-methoxyphenyl)-3,4-dihydro-2H-1,4-benzoxazin-2-yl]methanamine]
211 °C (dec.)	COc1ccc(-c2cccc3c2O[C@H](CN)CN3)c(Cl)c1 (as salt: hydrochloride) [Example 46, 1-[(2R)-8-(2-chloro-4-methoxyphenyl)-3,4-dihydro-2H-1,4-benzoxazin-2-yl]methanamine]
179 °C (dec.)	NC[C@H]1CNc2cccc(-c3ccccc3C(F)(F)F)c2O1 (as salt: hydrochloride) [Example 47, 1-{(2S)-8-[2-(trifluoromethyl)phenyl]-3,4-dihydro-2H-1,4-benzoxazin-2-yl}methanamine]
196 °C (dec.)	Cc1cc(Cl)ccc1-c1cccc2c1O[C@@H](CN)CN2 (as salt: hydrochloride) [Example 48, 1-[(2S)-8-(4-chloro-2-methylphenyl)-3,4-dihydro-2H-1,4-benzoxazin-2-yl]methanamine]
190 °C (dec.)	NC[C@H]1CNc2cccc(-c3ccccc3F)c2O1 (as salt: hydrochloride) [Example 49, 1-[(2S)-8-(2-fluorophenyl)-3,4-dihydro-2H-1,4-benzoxazin-2-yl]methanamine]
222 °C (dec.)	COc1ccc(-c2cccc3c2O[C@@H](CN)CN3)c(C)c1 (as salt: hydrochloride) [Example 50, 1-[(2S)-8-(4-methoxy-2-methylphenyl)-3,4-dihydro-2H-1,4-benzoxazin-2-yl]methanamine]
198 °C (dec.)	COc1ccc(-c2cccc3c2O[C@@H](CN)CN3)cc1 (as salt: hydrochloride) [Example 51, 1-[(2S)-8-(4-methoxyphenyl)-3,4-dihydro-2H-1,4-benzoxazin-2-yl]methanamine]
215 °C (dec.)	COc1ccc(-c2cccc3c2O[C@@H](CN)CN3)c(Cl)c1 (as salt: hydrochloride) [Example 52, 1-[(2S)-8-(2-chloro-4-methoxyphenyl)-3,4-dihydro-2H-1,4-benzoxazin-2-yl]methanamine]
130 °C (dec.)	NC[C@@H]1CNc2cccc(-c3cc(Cl)ccc3Cl)c2O1 (as salt: hydrochloride) [Example 53, 1-[(2R)-8-(2,5-dichlorophenyl)-3,4-dihydro-2H-1,4-benzoxazin-2-yl]methanamine]
163 °C (dec.)	NC[C@@H]1CNc2cccc(-c3ccc(Cl)cc3Cl)c2O1 (as salt: hydrochloride) [Example 54, 1-[(2R)-8-(2,4-dichlorophenyl)-3,4-dihydro-2H-1,4-benzoxazin-2-yl]methanamine]
203 °C (dec.)	NC[C@@H]1CNc2cccc(-c3ccc(Cl)cc3C(F)(F)F)c2O1 (as salt: hydrochloride) [Example 67, 1-{(2R)-8-[4-chloro-2-(trifluoromethyl)phenyl]-3,4-dihydro-2H-1,4-benzoxazin-2-yl}methanamine]

More lines, now with the values behind:

SMILES	melting point
COc1ccccc1-c1cccc2c1OC(CN)CN2C (racemic) (as salt: hydrochloride) [Example 1, 1-[8-(2-Methoxyphenyl)-4-methyl-3,4-dihydro-2H-1,4-benzoxazin-2-yl]methanamine]	90 °C (dec.)
Cc1cc(Cl)ccc1-c1cccc2c1OC(CN)CN2C (racemic) (as salt: hydrochloride) [Example 2, 1-[8-(4-Chloro-2-methylphenyl)-4-methyl-3,4-dihydro-2H-1,4-benzoxazin-2-yl]methanamine]	109 to 112 °C
CN1CC(CN)Oc2c(-c3ccc(Cl)cc3Cl)cccc21 (racemic) (as salt: hydrochloride) [Example 3, 1-[8-(2,4-Dichlorophenyl)-4-methyl-3,4-dihydro-2H-1,4-benzoxazin-2-yl]methanamine]	90 °C (dec.)
CN1CC(CN)Oc2c(-c3ccccc3C(F)(F)F)cccc21 (racemic) (as salt: hydrochloride) [Example 4, 1-{4-Methyl-8-[2-(trifluoromethyl)phenyl]-3,4-dihydro-2H-1,4-benzoxazin-2-yl}methanamine]	90 °C (dec.)
COc1ccc(-c2cccc3c2OC(CN)CN3C)c(C)c1 (racemic) (as salt: hydrochloride) [Example 5, 1-[8-(4-Methoxy-2-methylphenyl)-4-methyl-3,4-dihydro-2H-1,4-benzoxazin-2-yl]methanamine]	85 °C (dec.)
COc1ccc(-c2cccc3c2OC(CN)CN3C)cc1 (racemic) (as salt: hydrochloride) [Example 6, 1-[8-(4-Methoxyphenyl)-4-methyl-3,4-dihydro-2H-1,4-benzoxazin-2-yl]methanamine]	90 to 92 °C
CN1CC(CN)Oc2c(-c3ccccc3F)cccc21 (racemic) (as salt: hydrochloride) [Example 7, 1-[8-(2-Fluorophenyl)-4-methyl-3,4-dihydro-2H-1,4-benzoxazin-2-yl]methanamine]	104 °C (dec.)
Cc1ccccc1-c1cccc2c1OC(CN)CN2C (racemic) (as salt: hydrochloride) [Example 8, 1-[4-Methyl-8-(2-methylphenyl)-3,4-dihydro-2H-1,4-benzoxazin-2-yl]methanamine]	92 °C (dec.)
CN1CC(CN)Oc2c(-c3ccccc3)cccc21 (racemic) (as salt: hydrochloride) [Example 9, 1-(4-Methyl-8-phenyl-3,4-dihydro-2H-1,4-benzoxazin-2-yl)methanamine]	80 °C (dec.)
NCC1CNc2cc(F)cc(-c3c(Cl)cccc3Cl)c2O1 (racemic) (as salt: hydrochloride) [Example 10, 1-[8-(2,6-Dichlorophenyl)-6-fluoro-3,4-dihydro-2H-1,4-benzoxazin-2-yl]methanamine]	135 to 136 °C
CN1CC(CN)Oc2c(-c3ccccc3Cl)cccc21 (racemic) (as salt: hydrochloride) [Example 11, 1-[8-(2-Chlorophenyl)-4-methyl-3,4-dihydro-2H-1,4-benzoxazin-2-yl]methanamine]	80 °C (dec.)
NCC1CN(CC2CC2)c2cccc(-c3ccccc3Cl)c2O1 (racemic) (as salt: hydrochloride) [Example 12, 1-[8-(2-Chlorophenyl)-4-(cyclopropylmethyl)-3,4-dihydro-2H-1,4-benzoxazin-2-yl]methanamine]	90 °C (dec.)
CN1CC(CN)Oc2c(-c3cc(Cl)ccc3Cl)cccc21 (racemic) (as salt: hydrochloride) [Example 13, 1-[8-(2,5-Dichlorophenyl)-4-methyl-3,4-dihydro-2H-1,4-benzoxazin-2-yl]methanamine]	90 °C (dec.)
NCC1CNc2cccc(-c3cc(Cl)ccc3Cl)c2O1 (racemic) (as salt: hydrochloride) [Example 14, 1-[8-(2,5-Dichlorophenyl)-3,4-dihydro-2H-1,4-benzoxazin-2-yl]methanamine]	130 °C (dec.)
NCC1CNc2cccc(-c3ccc(Cl)cc3Cl)c2O1 (racemic) (as salt: hydrochloride) [Example 15, 1-[8-(2,4-Dichlorophenyl)-3,4-dihydro-2H-1,4-benzoxazin-2-yl]methanamine]	158 to 161 °C
NCC1CNc2cccc(-c3ccccc3Cl)c2O1 (racemic) (as salt: hydrochloride) [Example 16, 1-[8-(2-Chlorophenyl)-3,4-dihydro-2H-1,4-benzoxazin-2-yl]methanamine]	140 °C (dec.)
Cc1ccccc1-c1cccc2c1OC(CN)CN2 (racemic) (as salt: hydrochloride) [Example 17, 1-[8-(2-Methylphenyl)-3,4-dihydro-2H-1,4-benzoxazin-2-yl]methanamine]	195 to 197 °C
NCC1CNc2cccc(-c3ccc(Cl)cc3C(F)(F)F)c2O1 (racemic) (as salt: hydrochloride) [Example 18, 1-{8-[4-Chloro-2-(trifluoromethyl)phenyl]-3,4-dihydro-2H-1,4-benzoxazin-2-yl}methanamine]	205 to 207 °C
CCN1CC(CN)Oc2c(-c3ccccc3Cl)cccc21 (racemic) (as salt: hydrochloride) [Example 19, 1-[8-(2-Chlorophenyl)-4-ethyl-3,4-dihydro-2H-1,4-benzoxazin-2-yl]methanamine]	105 to 106 °C
Cc1cc(Cl)ccc1-c1cccc2c1OC(CN)CN2 (racemic) (as salt: hydrochloride) [Example 20, 1-[8-(4-chloro-2-methylphenyl)-3,4-dihydro-2H-1,4-benzoxazin-2-yl]methanamine]	192 to 194 °C
